{"source": "patent US8962573B2", "about": "(INSERM (Institut National de la Sante et de la Recherche …, priority 2009, dated 2015)", "molecules": {"B1": {"name": "IDUA-AMFA-1: recombinant α-L-iduronidase from baculovirus/Sf9 cells coupled to AMFA-1 (conjugate, UniProt P35475 28-653, looked up)", "Alpha-L-iduronidase": "APHLVHVDAARALWPLRRFWRSTGFCPPLPHSQADQYVLSWDQQLNLAYVGAVPHRGIKQVRTHWLLELVTTRGSTGRGLSYNFTHLDGYLDLLRENQLLPGFELMGSASGHFTDFEDKQQVFEWKDLVSSLARRYIGRYGLAHVSKWNFETWNEPDHHDFDNVSMTMQGFLNYYDACSEGLRAASPALRLGGPGDSFHTPPRSPLSWGLLRHCHDGTNFFTGEAGVRLDYISLHRKGARSSISILEQEKVVAQQIRQLFPKFADTPIYNDEADPLVGWSLPQPWRADVTYAAMVVKVIAQHQNLLLANTTSAFPYALLSNDNAFLSYHPHPFAQRTLTARFQVNNTRPPHVQLLRKPVLTAMGLLALLDEEQLWAEVSQAGTVLDSNHTVGVLASAHRPQGPADAWRAAVLIYASDDTRAHPNRSVAVTLRLRGVPPGPGLVYVTRYLDNGLCSPDGEWRRLGRPVFPTAEQFRRMRAAEDPVAAAPRPLPAGGRLTLRPALRLPSLLLVHVCARPEKPPGQVTRLRALPLTQGQLVLVWSDEHVGSKCLWTYEIQFSQDGKAYTPVSRKPSTFNLFVFSPDTGAVSGSYRVRALDYWARPGPFSDPVPYLEVPVPRGPPSPGNP", "modifications": "coupled to AMFA-1"}}, "key": {"[1]": {"tested_on": "CI-M6PR", "assay": "Binding assay to biotinylated CI-M6PR (displacement from adsorbed pentamannose 6-phosphate)", "details": "for stability of affinity in buffer solution / binding affinity to CI-M6PR (in words): 20° C.", "experimental": "The binding assays of the M6 Pa were performed using biotinylated CI-M6PR. Briefly, the CI-M6PR, purified on a phosphomannan-sepharose affinity column was biotinylated by N-hydroxysuccinimide biotin. The binding of the biotinylated CI-M6PR(CI-M6PRb) to pentamannose 6-phosphate (PMP) previously adsorbed on a microtitre plate was displaced by increasing concentrations of M6 Pa. The bound CI-M6PRb was then determined using the streptavidin/peroxidase couple and OPD substrate by optical density measurements. In control experiments the method was standardized by determining of the maximal concentration of the PMP adsorbed to the microtitre plate and the CI-M6PRb concentration required to saturate the adsorbed PMP [Jeanjean A et al., Bioorg Med Chem 14: 3575-82, 2006].\nThe binding assays of the cathD-AMFA-1 were performed using biotinylated CI-M6PR to the same protocol used for AMFA-1 binding assay, as detailed in section 1.2."}, "[2]": {"type": "in vitro ADME", "experimental": "(§1) Previous results have shown that a complex cathepsin D/anti-cathepsin D antibody was specifically internalised by CI-M6PR in normal human fibroblasts [Laurent-Matha V et al., J Cell Sci. 111: 2539-49, 1998]. The complex was here detected by immunofluorescence staining.\nThe binding affinity of AMFA-1, AMFA-2, AMFA-3 and AMFA-5 to CI-M6PR was determined at 20° C. (A) or in the presence of 75% human serum at 37° C. […] Methods are identical to 1.8 section."}, "[3]": {"assay": "FIG.15", "experimental": "Table printed on a drawing sheet, FIG.15\n(A) and in human serum (B).\nFirst reader's note: Stability (%) matches the CI-M6PR binding affinity remaining at the last time point of incubation in human serum in the plot printed below the table."}, "[4]": {"target": "T1, CI-M6PR (Homo sapiens, UniProt P11717)", "T1 construct": "endogenous in cells; host or cells: normal human fibroblasts", "T1 sequence (P11717 41-2491)": "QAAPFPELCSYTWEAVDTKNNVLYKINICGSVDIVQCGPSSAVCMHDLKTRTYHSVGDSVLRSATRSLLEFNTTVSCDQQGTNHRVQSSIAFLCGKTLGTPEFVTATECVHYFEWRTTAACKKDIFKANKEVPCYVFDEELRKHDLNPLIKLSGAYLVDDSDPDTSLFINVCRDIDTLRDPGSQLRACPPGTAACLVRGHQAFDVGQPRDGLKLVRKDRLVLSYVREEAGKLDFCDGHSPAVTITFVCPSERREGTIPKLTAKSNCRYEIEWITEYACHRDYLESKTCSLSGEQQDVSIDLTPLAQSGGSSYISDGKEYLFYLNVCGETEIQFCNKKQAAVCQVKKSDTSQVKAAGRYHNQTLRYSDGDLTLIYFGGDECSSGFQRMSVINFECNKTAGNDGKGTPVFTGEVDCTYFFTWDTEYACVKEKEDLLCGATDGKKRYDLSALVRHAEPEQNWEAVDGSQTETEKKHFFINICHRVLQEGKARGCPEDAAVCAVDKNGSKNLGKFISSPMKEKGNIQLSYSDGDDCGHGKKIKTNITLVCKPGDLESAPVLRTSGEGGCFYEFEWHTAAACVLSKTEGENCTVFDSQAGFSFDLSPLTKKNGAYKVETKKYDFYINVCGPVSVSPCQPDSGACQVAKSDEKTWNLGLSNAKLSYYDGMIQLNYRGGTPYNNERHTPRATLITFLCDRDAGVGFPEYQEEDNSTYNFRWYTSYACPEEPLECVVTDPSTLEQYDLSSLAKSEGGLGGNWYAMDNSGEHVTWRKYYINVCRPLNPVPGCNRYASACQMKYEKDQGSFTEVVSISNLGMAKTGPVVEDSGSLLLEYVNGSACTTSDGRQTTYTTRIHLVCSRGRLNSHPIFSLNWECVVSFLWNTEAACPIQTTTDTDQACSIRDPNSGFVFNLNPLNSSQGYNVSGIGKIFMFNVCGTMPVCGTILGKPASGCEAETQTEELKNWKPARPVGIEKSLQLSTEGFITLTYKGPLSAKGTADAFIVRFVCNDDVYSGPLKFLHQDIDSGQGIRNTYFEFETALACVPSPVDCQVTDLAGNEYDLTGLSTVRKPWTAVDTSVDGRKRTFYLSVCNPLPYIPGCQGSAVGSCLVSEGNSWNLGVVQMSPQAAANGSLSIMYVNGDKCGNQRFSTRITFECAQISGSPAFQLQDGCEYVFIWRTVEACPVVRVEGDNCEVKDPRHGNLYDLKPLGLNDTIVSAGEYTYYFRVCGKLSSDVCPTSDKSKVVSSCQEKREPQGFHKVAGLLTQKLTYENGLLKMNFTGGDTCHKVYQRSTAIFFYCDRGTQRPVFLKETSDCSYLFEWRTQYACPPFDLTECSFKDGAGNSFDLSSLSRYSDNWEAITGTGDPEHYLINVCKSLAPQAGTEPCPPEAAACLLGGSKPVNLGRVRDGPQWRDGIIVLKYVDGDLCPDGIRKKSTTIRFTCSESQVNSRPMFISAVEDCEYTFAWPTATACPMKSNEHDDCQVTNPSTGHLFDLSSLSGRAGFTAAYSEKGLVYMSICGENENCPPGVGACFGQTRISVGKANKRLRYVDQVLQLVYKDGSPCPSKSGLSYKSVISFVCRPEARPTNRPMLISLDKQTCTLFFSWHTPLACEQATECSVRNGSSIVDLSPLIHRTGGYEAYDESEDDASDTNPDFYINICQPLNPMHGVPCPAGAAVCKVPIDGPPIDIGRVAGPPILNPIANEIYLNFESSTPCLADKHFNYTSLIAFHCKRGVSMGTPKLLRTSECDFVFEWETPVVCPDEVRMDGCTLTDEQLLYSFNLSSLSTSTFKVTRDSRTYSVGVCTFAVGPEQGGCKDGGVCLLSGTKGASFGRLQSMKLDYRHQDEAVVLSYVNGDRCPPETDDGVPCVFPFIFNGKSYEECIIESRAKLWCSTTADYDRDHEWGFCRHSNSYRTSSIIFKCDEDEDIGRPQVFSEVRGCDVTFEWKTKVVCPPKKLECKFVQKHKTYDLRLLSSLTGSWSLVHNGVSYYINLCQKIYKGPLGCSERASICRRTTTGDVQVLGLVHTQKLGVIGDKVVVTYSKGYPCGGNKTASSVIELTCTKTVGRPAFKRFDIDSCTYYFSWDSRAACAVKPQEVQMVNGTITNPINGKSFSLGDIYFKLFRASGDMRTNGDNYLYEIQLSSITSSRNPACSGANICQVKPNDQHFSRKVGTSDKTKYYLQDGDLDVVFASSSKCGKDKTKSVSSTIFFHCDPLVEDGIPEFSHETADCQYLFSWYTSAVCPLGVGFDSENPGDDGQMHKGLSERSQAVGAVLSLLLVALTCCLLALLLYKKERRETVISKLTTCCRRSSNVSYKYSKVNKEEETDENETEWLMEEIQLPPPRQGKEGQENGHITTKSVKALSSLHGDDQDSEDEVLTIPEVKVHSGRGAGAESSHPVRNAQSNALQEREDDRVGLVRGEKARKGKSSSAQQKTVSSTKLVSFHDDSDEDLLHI", "type": "cell-based", "details": "pre-incubation with 10 mM", "experimental": "(§2) As observed at light microscopy, 100 ng/mL neoIDUA was already internalised by MPSI fibroblasts from Scheie patient after 3 h incubation (FIG. 17 B-E). […] Glyceraldehyde 3-phosphate dehydrogenase (GAPDH) immunodetection was used as an internal control for total protein loading."}, "[5]": {"tested_on": "MCF7", "assay": "Cytotoxicity on breast cancer cell line MCF7", "type": "cell-based, human", "details": "data not shown"}, "[6]": {"tested_on": "MDA-MB-231", "assay": "Cytotoxicity on breast cancer cell line MDA-MB-231", "type": "cell-based, human", "details": "data not shown"}, "[7]": {"tested_on": "human normal fibroblast IMR-90 cell line", "assay": "Cytotoxicity on human normal fibroblast cell line", "type": "cell-based", "details": "FIG. 14C"}, "[8]": {"target": "T1, CI-M6PR", "assay": "Endocytosis of cathepsin D/anti-cathepsin D antibody complex via CI-M6PR in normal human fibroblasts (immunofluorescence)", "type": "cell-based", "details": "cells pre-incubated with 10 mM; control cells 80%", "text": "as §1"}, "[9]": {"tested_on": "MPSI fibroblasts from Scheie patient", "assay": "neoIDUA cell internalisation in MPSI fibroblasts", "type": "cell-based, human", "experimental": "as §2"}, "[10]": {"tested_on": "Hurler patient fibroblasts", "assay": "Secreted GAG in culture medium of Hurler patient fibroblasts (Blyscan kit)", "type": "cell-based, human"}, "[11]": {"tested_on": "Hurler fibroblasts", "assay": "Viability of Hurler fibroblasts (MTT assay)", "type": "cell-based, human", "details": "100-500 ng/mL", "experimental": "Cell viability was evaluated by MTT assay [Maynadier et al. FASEB J, 22: 671-81, 2008]."}, "[12]": {"tested_on": "Homozygous IDUA −/− mice", "assay": "Therapeutic efficacy in mucopolysaccharidosis I (MPSI) mouse model, urinary GAG", "type": "in vivo", "details": "0.16 mg/kg body weight/week intravenously, 6 weeks; Mean ± SD", "experimental": "Homozygous IDUA −/− mice (6-8 week-old) were treated intravenously with vehicle alone (control) or with 0.16 mg neoIDUA/kg body weight/week for 6 weeks. The secreted GAG were assayed in urine after 6 injections and normalized to urine creatinine concentrations using methods previously described [Barbosa et al., Glycobiology Adv. Access 13: 647-53, 2003]."}}, "note": "Values joined by “and” are separate entries in the source; they are usually repeats but may differ in a detail not shown here. Equal values may be shown once. “Also recorded” adds a separate entry of the source. Read-outs that look alike come from different tables or passages of the source.", "data": [{"molecule": "5-hydrazinocarbonylpentyl 6-phosphate-α-D-mannopyranoside disodium salt [M6P-hexanehydrazide, reference compound]", "values": [{"measurement": "stability of affinity in buffer solution", "setting": "[1]", "result": "stable affinity"}, {"measurement": "decrease of affinity in human serum", "setting": "[2]; 75% human serum at 37° C., after 7-8 h", "result": "~50", "unit": "%"}, {"measurement": "decrease of affinity in human serum", "setting": "[2]; 75% human serum at 37° C., after 16 h", "result": 84, "unit": "%"}]}, {"molecule": "5-hydrazinocarbonylpentyl 6-phosphate-α-D-mannopyranoside disodium salt [M6P-hexanehydrazide]", "values": [{"measurement": "Stability (%)", "setting": "[3]", "result": 16, "unit": "%"}]}, {"molecule": "NNC(=O)CCCCCO[C@H]1O[C@H](CCP(=O)(O)O)[C@@H](O)[C@H](O)[C@@H]1O.[Na].[Na]", "note": "[AMFA-1, 5-hydrazinocarbonylpentyl 6-deoxy-6-dihydroxyphosphinylmethyl-α-D-mannopyranoside disodium salt]", "values": [{"measurement": "effect on uptake of neoIDUA by the cells", "setting": "[4]", "result": "totally prevented"}, {"measurement": "toxicity in human breast cancer cell line MCF7", "setting": "[5]", "result": "no toxicity"}, {"measurement": "toxicity in human breast cancer cell line MDA", "setting": "[6]", "result": "no toxicity"}, {"measurement": "binding affinity to CI-M6PR (in words)", "setting": "[1]", "result": "high binding affinity"}, {"measurement": "binding affinity for CI-M6PR (comparison in words)", "setting": "[1]; FIG. 1, FIG. 14", "result": "identical to those of phosphonate 1 alone"}, {"measurement": "stability in human serum (in words)", "setting": "[2]; 75% (v/v) human serum, disodium salt", "result": "identical to those of phosphonate 1 alone; also recorded: stable"}, {"measurement": "toxicity in human fibroblasts", "setting": "[7]", "result": "absence of toxicity"}]}, {"molecule": "NNC(=O)CCn1cc(CO[C@H]2O[C@H](CCP(=O)(O)O)[C@@H](O)[C@H](O)[C@@H]2O)nn1.[Na].[Na]", "note": "[AMFA-2, Disodium salt of (Hydrazinocarbonylethyl)-1H-1,2,3-triazol-4-yl-methyl 6-Deoxy-6-dihydroxyphosphinylmethylene-α-D-mannopyranoside]", "values": [{"measurement": "binding affinity to CI-M6PR (in words)", "setting": "[1]", "result": "high binding affinity"}, {"measurement": "stability in human serum (in words)", "setting": "[2]", "result": "stable"}, {"measurement": "Stability (%)", "setting": "[3]", "result": 90, "unit": "%"}]}, {"molecule": "NOCCO[C@H]1O[C@H](CCP(=O)(O)O)[C@@H](O)[C@H](O)[C@@H]1O.[Na].[Na]", "note": "[AMFA-3, Disodium salt of 2-(aminoxy)ethyl 6-deoxy-6-dihydroxyphosphinylmethylene-α-D-mannopyranoside]", "values": [{"measurement": "binding affinity to CI-M6PR (in words)", "setting": "[1]", "result": "high binding affinity"}, {"measurement": "stability in human serum (in words)", "setting": "[2]", "result": "stable"}, {"measurement": "Stability (%)", "setting": "[3]", "result": 91, "unit": "%"}]}, {"molecule": "COC(=O)CCCCCO[C@H]1O[C@H](CC(C(=O)[O-])C(=O)[O-])[C@@H](O)[C@H](O)[C@@H]1O.[Na+].[Na+]", "note": "[AMFA-5, [5-methoxycarbonylpentyl 6,7-dideoxy-7-(carboxy)-α-D-manno-octopyranoside]uronate disodium salt]", "values": [{"measurement": "binding affinity to CI-M6PR (in words)", "setting": "[1]", "result": "high binding affinity"}, {"measurement": "stability in human serum (in words)", "setting": "[2]", "result": "stable"}, {"measurement": "Stability (%)", "setting": "[3]", "result": 90, "unit": "%"}]}, {"molecule": "O=C[C@@H](O)[C@@H](O)[C@H](O)[C@H](O)COP(=O)(O)O", "note": "[M6P, mannose 6-phosphate, reference compound]", "values": [{"measurement": "effect on uptake of neoIDUA by the cells", "setting": "[4]", "result": "strongly decreased"}, {"measurement": "stability of affinity in buffer solution", "setting": "[1]", "result": "stable affinity"}, {"measurement": "decrease of affinity in human serum", "setting": "[2]; human", "result": "~50", "unit": "%"}, {"measurement": "decrease of affinity in human serum", "setting": "[2]; human, 16 h", "result": 100, "unit": "%"}, {"measurement": "cells that internalized the cathepsin D/anti-cathepsin D antibody complex", "setting": "[8]", "result": 30, "unit": "%"}]}, {"molecule": "O=C[C@@H](O)[C@@H](O)[C@H](O)[C@H](O)COP(=O)(O)O", "note": "[M6P, mannose 6-phosphate]", "values": [{"measurement": "Stability (%)", "setting": "[3]", "result": 0, "unit": "%"}]}, {"molecule": "natural cathepsin D: human lysosomal enzyme, high affinity ligand for CI-M6PR with bisphosphorylated chains", "values": [{"measurement": "Kd", "setting": "[1]; FIG. 16A, read-out: affinity for CI-M6PR (Kd)", "result": 15, "unit": "nM"}]}, {"molecule": "B1", "values": [{"measurement": "internalisation by MPSI fibroblasts (light microscopy)", "setting": "[9]; 100 ng/mL, 3 h incubation, Scheie patient", "result": "internalised"}, {"measurement": "internalization in cell extracts (Western Blot)", "setting": "[9]; after 24 h incubation", "result": "demonstrated"}, {"measurement": "Secreted GAG concentrations in culture medium", "setting": "[10]; 24 h treatment, control 0.018", "result": 0.009, "unit": "µg/mL"}, {"measurement": "Secreted GAG concentrations in culture medium", "setting": "[10]; 48 h treatment, control 0.022", "result": 0.016, "unit": "µg/mL"}, {"measurement": "Secreted GAG concentrations in culture medium", "setting": "[10]; 72 h treatment, control 0.032", "result": 0.018, "unit": "µg/mL"}, {"measurement": "reduction of GAG secretion", "setting": "[10]; from 24 to 72 h", "result": "up to 50%"}, {"measurement": "toxicity on Hurler fibroblasts", "setting": "[11]", "result": "not toxic"}, {"measurement": "cell viability", "setting": "[11]; 72 h", "result": "slightly potentiate cell viability"}, {"measurement": "Secreted GAG concentrations/creatinine concentrations in urine", "setting": "[12]", "result": "59.8 % control and 59.8 ± 9.0 % control"}]}]}
